This passage reports mutagenic call results from PubChem BioAssay AID1259407 (Chemical Carcinogenesis Research Information System (CCRIS), 2018).

Active and inactive are the calls of the source. No rule for the calls is given here.

This data set has as its system CCRIS mutagenicity, Ames/micronucleus/aberration tests. Put plainly: CCRIS mutagenicity studies.
Setting [1] is: Test System: AMES SALMONELLA TYPHIMURIUM, Strain/Indicator: TA100, Metabolic Activation: NONE, Method: STANDARD PLATE.
The mark [2] stands for this setting: Test System: AMES SALMONELLA TYPHIMURIUM, Strain/Indicator: TA100, Metabolic Activation: RAT, LIVER, S-9, AROCLOR 1254, Method: STANDARD PLATE.
Setting [3] is: Test System: AMES SALMONELLA TYPHIMURIUM, Strain/Indicator: TA98, Metabolic Activation: NONE, Method: STANDARD PLATE.
[4] abbreviates: Test System: AMES SALMONELLA TYPHIMURIUM, Strain/Indicator: TA98, Metabolic Activation: HAMSTER, LIVER, S-9, AROCLOR 1254 (30%), Method: PREINCUBATION
Where [5] appears, read: Test System: AMES SALMONELLA TYPHIMURIUM, Strain/Indicator: TA98, Metabolic Activation: NONE, Method: PREINCUBATION
Where [6] appears, read: Test System: AMES SALMONELLA TYPHIMURIUM, Strain/Indicator: TA98, Metabolic Activation: RAT, LIVER, S-9, AROCLOR 1254 (30%), Method: PREINCUBATION
The mark [7] stands for this setting: Test System: AMES SALMONELLA TYPHIMURIUM, Strain/Indicator: TA100, Metabolic Activation: HAMSTER, LIVER, S-9, AROCLOR 1254 (30%), Method: PREINCUBATION
Setting [8] is: Test System: AMES SALMONELLA TYPHIMURIUM, Strain/Indicator: TA100, Metabolic Activation: NONE, Method: PREINCUBATION
The mark [9] stands for this setting: Test System: AMES SALMONELLA TYPHIMURIUM, Strain/Indicator: TA100, Metabolic Activation: RAT, LIVER, S-9, AROCLOR 1254 (30%), Method: PREINCUBATION

Take `CC(=O)c1ccc[nH]1`: the mutagenic call by setting is: under setting [1], “inactive; negative”; under setting [2], “inactive; negative”.
With `N[C@@H](Cc1ccccc1)C(=O)O`, the mutagenic call reads like this: under setting [3], “inactive; negative”; (Test System: AMES SALMONELLA TYPHIMURIUM, Strain/Indicator: TA98, Metabolic Activation: RAT, LIVER, S-9, AROCLOR 1254, Method: STANDARD PLATE) “inactive; negative”; under setting [1], “inactive; negative”; under setting [2], “inactive; negative”.
Take `COc1cccc2c1C(=N)c1c(O)c3c(c(O)c1C2=O)C[C@@](O)(C(C)=O)C[C@@H]3O[C@H]1C[C@H](N)[C@H](O)[C@H](C)O1`: the mutagenic call (Test System: CHINESE HAMSTER V-79, Strain/Indicator: V-79 (HGPRT)/6-THIOGUANINE, Metabolic Activation: NONE) was “active; positive”.
Regarding `COc1cc(Cl)c(OC)cc1Cl`, the mutagenic call runs as follows: (Test System: AMES SALMONELLA TYPHIMURIUM, Strain/Indicator: TA98, Metabolic Activation: HAMSTER, LIVER, S-9, AROCLOR 1254 (5 OR 10%), Method: PREINCUBATION) “inactive; negative”; under setting [4], “inactive; negative”; under setting [5], “inactive; negative”; under setting [6], “inactive; negative”; (Test System: AMES SALMONELLA TYPHIMURIUM, Strain/Indicator: TA100, Metabolic Activation: HAMSTER, LIVER, S-9, AROCLOR 1254 (5 OR 10%), Method: PREINCUBATION) “inactive; negative”; under setting [7], “active; positive”. The mutagenic call is, setting by setting: under setting [8], “inactive; negative”; under setting [9], “inactive; negative”.
`CC(=O)Nc1cccc(N)c1`: the mutagenic call runs as follows: (Test System: AMES SALMONELLA TYPHIMURIUM, Strain/Indicator: TA97, Metabolic Activation: HAMSTER, LIVER, S-9, AROCLOR 1254 (10%), Method: PREINCUBATION) “active; positive”; (Test System: AMES SALMONELLA TYPHIMURIUM, Strain/Indicator: TA97, Metabolic Activation: NONE, Method: PREINCUBATION) “inactive; negative”; (Test System: AMES SALMONELLA TYPHIMURIUM, Strain/Indicator: TA97, Metabolic Activation: RAT, LIVER, S-9, AROCLOR 1254 (10%), Method: PREINCUBATION) “active; positive”; (Test System: AMES SALMONELLA TYPHIMURIUM, Strain/Indicator: TA98, Metabolic Activation: HAMSTER, LIVER, S-9, AROCLOR 1254 (10%), Method: PREINCUBATION) “active; positive”; under setting [5], “inactive; negative”; (Test System: AMES SALMONELLA TYPHIMURIUM, Strain/Indicator: TA98, Metabolic Activation: RAT, LIVER, S-9, AROCLOR 1254 (10%), Method: PREINCUBATION) “active; positive”. Moreover, the mutagenic call runs as follows: (Test System: AMES SALMONELLA TYPHIMURIUM, Strain/Indicator: TA100, Metabolic Activation: HAMSTER, LIVER, S-9, AROCLOR 1254 (10%), Method: PREINCUBATION) “active; positive”; under setting [8], “inactive; negative”; (Test System: AMES SALMONELLA TYPHIMURIUM, Strain/Indicator: TA100, Metabolic Activation: RAT, LIVER, S-9, AROCLOR 1254 (10%), Method: PREINCUBATION) “inactive; negative”; (Test System: AMES SALMONELLA TYPHIMURIUM, Strain/Indicator: TA1535, Metabolic Activation: HAMSTER, LIVER, S-9, AROCLOR 1254 (10%), Method: PREINCUBATION) “inactive; negative”; (Test System: AMES SALMONELLA TYPHIMURIUM, Strain/Indicator: TA1535, Metabolic Activation: NONE, Method: PREINCUBATION) “inactive; negative”; (Test System: AMES SALMONELLA TYPHIMURIUM, Strain/Indicator: TA1535, Metabolic Activation: RAT, LIVER, S-9, AROCLOR 1254 (10%), Method: PREINCUBATION) “inactive; negative”.
Regarding `CC(C)CCCCCCOC(=O)c1ccccc1C(=O)OCCCCCCC(C)C`, the mutagenic call under setting [3] was “inactive; negative”; the mutagenic call (Test System: AMES SALMONELLA TYPHIMURIUM, Strain/Indicator: TA98, Metabolic Activation: RAT LIVER S-9, AROCLOR, Method: STANDARD PLATE) is “inactive; negative”; the mutagenic call under setting [1] is “inactive; negative”; the mutagenic call (Test System: AMES SALMONELLA TYPHIMURIUM, Strain/Indicator: TA100, Metabolic Activation: RAT LIVER S-9, AROCLOR, Method: STANDARD PLATE) was “inactive; negative”; the mutagenic call (Test System: AMES SALMONELLA TYPHIMURIUM, Strain/Indicator: TA1535, Metabolic Activation: NONE, Method: STANDARD PLATE) is “inactive; negative”; the mutagenic call (Test System: AMES SALMONELLA TYPHIMURIUM, Strain/Indicator: TA1535, Metabolic Activation: RAT LIVER S-9, AROCLOR, Method: STANDARD PLATE) is “inactive; negative”. In addition, the mutagenic call (Test System: AMES SALMONELLA TYPHIMURIUM, Strain/Indicator: TA1537, Metabolic Activation: NONE, Method: STANDARD PLATE) was “inactive; negative”; the mutagenic call (Test System: AMES SALMONELLA TYPHIMURIUM, Strain/Indicator: TA1537, Metabolic Activation: RAT LIVER S-9, AROCLOR, Method: STANDARD PLATE) was “inactive; negative”; the mutagenic call (Test System: AMES SALMONELLA TYPHIMURIUM, Strain/Indicator: TA1538, Metabolic Activation: NONE, Method: STANDARD PLATE) is “inactive; negative”; the mutagenic call (Test System: AMES SALMONELLA TYPHIMURIUM, Strain/Indicator: TA1538, Metabolic Activation: RAT LIVER S-9, AROCLOR, Method: STANDARD PLATE) is “inactive; negative”.
For the compound `C[n+]1ccc(-c2ccccc2)cc1`, the mutagenic call runs as follows: under setting [8], “inactive; negative”; (Test System: AMES SALMONELLA TYPHIMURIUM, Strain/Indicator: TA102, Metabolic Activation: NONE, Method: PREINCUBATION) “inactive; negative”.
In the case of `O=[N+]([O-])c1ccc2ncccc2c1`, the mutagenic call under setting [5] was “active; positive”; the mutagenic call (Test System: AMES SALMONELLA TYPHIMURIUM, Strain/Indicator: TA98, Metabolic Activation: RAT, LIVER, S-9, Method: PREINCUBATION) is “active; positive”; the mutagenic call under setting [8] was “active; positive”; the mutagenic call (Test System: AMES SALMONELLA TYPHIMURIUM, Strain/Indicator: TA100, Metabolic Activation: RAT, LIVER, S-9, Method: PREINCUBATION) was “active; positive”.
Regarding `CC1CC(=O)O1` (stereo not given), the mutagenic call by setting is: (Test System: AMES SALMONELLA TYPHIMURIUM, Strain/Indicator: G46, Metabolic Activation: NONE, Method: STANDARD PLATE) “active; positive”; under setting [4], “active; positive”; under setting [5], “active; positive”; under setting [6], “active; positive”; under setting [7], “active; positive”; under setting [8], “active; positive”. For the same compound, the mutagenic call under setting [9] was “active; positive”.
